Patent US9527859B2, “Amidopyridine derivative and use thereof” (Mitsubishi Tanabe Pharma Corporation, priority 2012, dated 2016)

System: Salmonella typhimurium TA104 strain
Assay type: cell-based
Experimental: Genotoxicity Test Using Salmonella typhimurium TA104 Strain Carrying a Reporter Gene Under the Control of DNA Repair Enzyme recN (Vitotox Test)
To prepare agents for stock of tester strain, Amp solution (50 mg/mL) and Tet solution (10 mg/mL) were prepared, and then LB-agar plate (35 mg/mL+Amp (100 μg/mL)+Tet ([…])) was prepared, and LB medium (20 mg/mL+Amp (100 μg/mL)+Tet (20 μg/mL)) was prepared. Then, LB medium for pre-incubation (10 mg/mL), LB medium for test (4 mg/mL) and enhancer reagent (50 mg (CaCl2.H2O)/mL) were prepared.
Freezing stock of bacterial strain was thawed to be streaked on LB-agar plate, and incubated in an incubator (TITEC, BIO-SHAKER BR-15) at 37° C. overnight. […]
A solution for positive control was prepared as below. […] When the test compound was completely dissolved, the highest concentration as prepared was determined to be a highest dose, and when a precipitate was found, a homogeneous suspension which was able to be pipetted was determined to be a highest dose.
After a fluorescent and luminescent photometer (Thermo Labsystem, Fluoroskan Ascent FL), plate and medium for test were set up, Genox and Cytox reaction solutions were prepared as below. Dilution factor as well as requisite amounts for medium for test, pre-incubation strain solution, Enhancer Reagent and S9 mix were calculated so that OD590 was set as about 0.03 for each culture solution. […]

Q: How did the “Genotoxicity (Vitotox test)” value turn out when Nc1cnc(N2CCC(O)CC2)c(C2CC2)c1 [1-(5-amino-3-cyclopropylpyridin-2-yl)piperidin-4-ol] was run?
A: negative
